Test results: publication PMC9785202, “Changes in Disposition of Ezetimibe and Its Active Metabolites Induced by Impaired Hepatic Function: The Influence of Enzyme and Transporter Activities” (Pharmaceutics, 2022)
Like-named read-outs stand apart in the source and are kept apart here. Marks after values point to notes of the source that are not given here.

How the values were obtained:
[1] = for Autosampler stability (4°C, 24 h), RE / Post-extraction stability (room temperature 3 h), RE / Freeze-thaw stability (−20°C, three cycles), RE / Short-term stability (room temperature 3 h), RE: n = 6; for Freeze-thaw stability (−20°C, three cycles), RE / Short-term stability (room temperature 3 h), RE: rat plasma
Procedure: The instrument parameters were as follows: ion spray voltage, −4500 V; source temperature, 550 °C; nebulizer gas, 60 psi; heater gas, 60 psi; and curtain gas, 40 psi. […] Data were acquired and processed with the Analyst 1.6.3 software (Applied Biosystems). The standard curve ranges were 1.00 to 1000 ng/mL for EZE, 3.00 to 3000 ng/mL for EZE-Ph, and 1.00 to 1000 ng/mL for EZE-Hy in plasma.
Summary of the stability of ezetimibe and its metabolites in rat plasma (n = 6).

[2] = Pharmacokinetics after intravenous or oral administration of 10 mg/kg EZE to control and CCl4-induced rats; type: in vivo; settings: for AUC(0-t) / Cmax / Tmax / half-life: Sprague-Dawley, rat, plasma, 10 mg/kg
Procedure: Animals were fasted for 12 h with free access to water before the experiments. EZE was administered orally (prepared in 0.5% carboxymethylcellulose sodium) or intravenously (dissolved in 10% dimethyl sulfoxide, 10% tween-80, and 80% sterile H2O) to CCl4-induced rats (n = 5) and control rats (n = 5) at 10 mg/kg. Blood samples were collected from the retro-orbital venous plexus before administration (0 h), at 5, 15, and 30 min, and at 1, 2, 4, 6, 8, 12, 24, and 48 h after administration in tubes containing EDTA-2K. Plasma samples were harvested by centrifugation at 11,600 g for 5 min at 4 °C and then stored at −80 °C until further analysis.
A 25.0 μL aliquot of each sample and 25.0 μL of internal standard (50.0 ng/mL EZE-d4) were mixed with 100 μL of acetonitrile. After the samples were vortexed and centrifugated at 2250 g for 15 min, the supernatants were used to measure EZE and its metabolites by LC-MS/MS.
WinNonlin version 6.1 (Pharsight Corp., Cary, NC, USA) was used to calculate the pharmacokinetic parameters in a non-compartmental model. Statistical comparisons between the two groups were evaluated using a Student’s two-tailed unpaired t-test or the nonparametric Mann–Whitney test in GraphPad Prism (version 8.0, GraphPad Software Inc, SanDiego, CA, USA). A value of p < 0.05 was considered significant. All data were presented as the mean ± S.D. (n ≥ 3).

OATP1B3 = target: T1, OATP1B3 (Homo sapiens, UniProt Q9NPD5); assay: Inhibition of OATP1B3-mediated uptake in OATP1B3-transfected HEK293 cells by bile acids and rifampicin
T1 sequence (Q9NPD5 1-702): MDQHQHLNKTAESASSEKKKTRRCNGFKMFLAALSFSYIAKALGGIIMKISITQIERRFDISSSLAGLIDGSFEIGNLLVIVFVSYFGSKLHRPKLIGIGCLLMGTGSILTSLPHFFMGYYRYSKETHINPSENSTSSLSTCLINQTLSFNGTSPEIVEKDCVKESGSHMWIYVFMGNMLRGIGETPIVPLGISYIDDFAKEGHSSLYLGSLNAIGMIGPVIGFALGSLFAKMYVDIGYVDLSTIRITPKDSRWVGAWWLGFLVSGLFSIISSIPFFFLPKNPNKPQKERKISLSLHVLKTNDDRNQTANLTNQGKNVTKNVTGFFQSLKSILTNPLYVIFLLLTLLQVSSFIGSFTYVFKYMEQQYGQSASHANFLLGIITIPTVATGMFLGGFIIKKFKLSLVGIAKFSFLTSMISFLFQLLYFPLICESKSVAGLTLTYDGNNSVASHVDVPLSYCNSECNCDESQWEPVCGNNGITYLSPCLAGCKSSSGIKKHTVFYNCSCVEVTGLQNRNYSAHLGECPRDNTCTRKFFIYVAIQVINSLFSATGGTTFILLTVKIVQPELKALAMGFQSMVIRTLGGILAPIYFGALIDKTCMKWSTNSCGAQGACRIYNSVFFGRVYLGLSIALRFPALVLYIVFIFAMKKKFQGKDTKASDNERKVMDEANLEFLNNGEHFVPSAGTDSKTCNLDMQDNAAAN

[3] = CCl4-induced hepatic failure rat model: liver index and serum ALT, AST, AKP; type: in vivo, Sprague–Dawley (SD) rats
Procedure: All animal studies were carried out according to the Guide for the Care and Use of Laboratory Animals of the Shanghai Institute of Materia Medica, Chinese Academy of Sciences. Male Sprague–Dawley (SD) rats weighing 180 to 220 g were randomized into two groups. The CCl4-induced model group was administered an intraperitoneal injection of CCl4 (20% in corn oil) at a dose of 2.5 mL/kg three times a week for 8 weeks. The control group was treated intraperitoneally with the same volume of corn oil at the same time intervals. Blood samples were collected and centrifuged at 11,600 g for 5 min to obtain serum samples for the determination of serum ALT, AST, and AKP.
Serum ALT, AST, and AKP were measured using the corresponding assay kits following the manufacturer’s instructions. Tissues fixed in 4% paraformaldehyde were embedded in paraffin, cut into slices with a 3 μm thickness, and stained with hematoxylin and eosin (H&E).

[4] = substrate: O=C(O)C1OC(Oc2ccc([C@@H]3[C@@H](CC[C@H](O)c4ccc(F)cc4)C(=O)N3c3ccc(F)cc3)cc2)C(O)C(O)C1O; assay: Uptake of EZE-Ph into OATP1B1-transfected HEK293 cells; type: in vitro ADME, human; settings: other: OATP1B1 HEK293, uptake time 5 min; 37.0 °C
Procedure: (§1) The kinetic parameters and the half inhibitory concentration (IC50) were calculated using GraphPad Prism. […] The intrinsic clearance (CLint) was calculated as CLint = Vmax/Km.

[5] = substrate: O=C(O)C1OC(Oc2ccc([C@@H]3[C@@H](CC[C@H](O)c4ccc(F)cc4)C(=O)N3c3ccc(F)cc3)cc2)C(O)C(O)C1O; assay: Uptake of EZE-Ph into OATP2B1-transfected HEK293 cells; type: in vitro ADME, human; settings: other: OATP2B1 HEK293, uptake time 5 min; 37.0 °C
Procedure: as §1

[6] = iv, i.v. 10 mg/kg EZE, CCl4-induced rats
[7] = iv, i.v. 10 mg/kg EZE, control rats
[8] = po, p.o. 10 mg/kg EZE, CCl4-induced rats
[9] = po, p.o. 10 mg/kg EZE, control rats
[10] = oral administration of 10 mg/kg EZE
[11] = CCl4-induced rats vs control rats
[12] = serum, CCl4-induced rats, n = 16

O=C(O)[C@H]1O[C@@H](O[C@@H](CC[C@H]2C(=O)N(c3ccc(F)cc3)[C@@H]2c2ccc(O)cc2)c2ccc(F)cc2)[C@H](O)[C@@H](O)[C@@H]1O [EZE-Hy, ezetimibe hydroxy β-D-glucuronide]
Autosampler stability (4°C, 24 h), RE ([1]; HQC (800/2400/800 ng/ml)): 9.0% | Post-extraction stability (room temperature 3 h), RE ([1]; HQC (800/2400/800 ng/ml)): 5.2% | Autosampler stability (4°C, 24 h), RE ([1]; LQC (3.00/9.00/3.00 ng/ml)): 7.9% | Post-extraction stability (room temperature 3 h), RE ([1]; LQC (3.00/9.00/3.00 ng/ml)): 8.9% | stability in rat plasma under the test conditions ([1]; LQC and HQC samples, short-term, post-extraction, auto-sampler, three freeze/thaw cycles): stable | Freeze-thaw stability (−20°C, three cycles), RE ([1]; HQC (800/2400/800 ng/ml)): 2.0% | Short-term stability (room temperature 3 h), RE ([1]; HQC (800/2400/800 ng/ml)): -3.6% | Freeze-thaw stability (−20°C, three cycles), RE ([1]; LQC (3.00/9.00/3.00 ng/ml)): -0.1% | Short-term stability (room temperature 3 h), RE ([1]; LQC (EZE/EZE-Ph/EZE-Hy 3.00/9.00/3.00 ng/ml)): -6.9% | stability in blood ([1]; room temperature for 2 h): stable | AUC(0-t) [2, 6]: 4250 ± 2050 ng·h/mL | Cmax [2, 6]: 146 ± 42 ng/mL | Tmax [2, 6]: 11.2 ± 7.6 h | half-life [2, 6]: 15.3 ± 2.4 h | AUC(0-t) [2, 7]: 992 ± 392 ng·h/mL | Cmax [2, 7]: 36.9 ± 9.6 ng/mL | Tmax [2, 7]: 16.8 ± 6.6 h | half-life [2, 7]: 16.1 ± 7.6 h | AUC(0-t) [2, 8]: 1170 ± 418 ng·h/mL | Cmax [2, 8]: 38.1 ± 10.1 ng/mL | Tmax [2, 8]: 14.4 ± 5.4 h | AUC(0-t) [2, 9]: 463 ± 160 ng·h/mL | Cmax [2, 9]: 24.6 ± 9.9 ng/mL | Tmax [2, 9]: 12 h | AUC0–t, fold higher in CCl4-induced rats than in control rats ([2]; intravenous injection of 10 mg/kg EZE): 4.3 fold | AUC0–t, fold higher in CCl4-induced rats than in control rats [2, 10]: 2.5 fold | share in plasma relative to the main circulating component EZE-Ph [2, 10]: 11%

C[C@H](CCC(=O)O)[C@H]1CC[C@H]2[C@@H]3[C@@H](O)C[C@@H]4C[C@H](O)CC[C@]4(C)[C@H]3CC[C@]12C [UDCA, ursodeoxycholic acid]
IC50 (OATP1B3): 25.5 µM

ClC(Cl)(Cl)Cl [CCl4, Carbon tetrachloride]
serum AKP, fold higher than in control rats [3, 11]: 3.86 fold | serum ALT, fold higher than in control rats [3, 11]: 8.62 fold | serum AST, fold higher than in control rats [3, 11]: 5.76 fold | Liver weight/body weight ([3]; CCl4-induced rats, 8 weeks of treatment, n = 16): 37.9 ± 5.9 ^c | AKP [3, 12]: 9887 ± 1633 ^d U/L | ALT [3, 12]: 112 ± 33 ^d U/L | AST [3, 12]: 125 ± 34 ^d U/L

C[C@H](CCC(=O)NCC(=O)O)[C@H]1CC[C@H]2[C@@H]3[C@@H](O)C[C@@H]4C[C@H](O)CC[C@]4(C)[C@H]3CC[C@]12C [GUDCA, glycoursodeoxycholic acid]
IC50 (OATP1B3): 46.1 µM

B1: OATP1B1 (Homo sapiens) (protein)
chain: MDQNQHLNKTAEAQPSENKKTRYCNGLKMFLAALSLSFIAKTLGAIIMKSSIIHIERRFEISSSLVGFIDGSFEIGNLLVIVFVSYFGSKLHRPKLIGIGCFIMGIGGVLTALPHFFMGYYRYSKETNINSSENSTSTLSTCLINQILSLNRASPEIVGKGCLKESGSYMWIYVFMGNMLRGIGETPIVPLGLSYIDDFAKEGHSSLYLGILNAIAMIGPIIGFTLGSLFSKMYVDIGYVDLSTIRITPTDSRWVGAWWLNFLVSGLFSIISSIPFFFLPQTPNKPQKERKASLSLHVLETNDEKDQTANLTNQGKNITKNVTGFFQSFKSILTNPLYVMFVLLTLLQVSSYIGAFTYVFKYVEQQYGQPSSKANILLGVITIPIFASGMFLGGYIIKKFKLNTVGIAKFSCFTAVMSLSFYLLYFFILCENKSVAGLTMTYDGNNPVTSHRDVPLSYCNSDCNCDESQWEPVCGNNGITYISPCLAGCKSSSGNKKPIVFYNCSCLEVTGLQNRNYSAHLGECPRDDACTRKFYFFVAIQVLNLFFSALGGTSHVMLIVKIVQPELKSLALGFHSMVIRALGGILAPIYFGALIDTTCIKWSTNNCGTRGSCRTYNSTSFSRVYLGLSSMLRVSSLVLYIILIYAMKKKYQEKDINASENGSVMDEANLESLNKNKHFVPSAGADSETHC
notes: host or cells: HEK293
Km [4]: 91.5 µM | Vmax [4]: 5.17e-05 µmol/min/mg | Vmax/Km [4]: 0.56 µL/min/mg

B2: OATP2B1 (Homo sapiens) (protein)
chain: MGPRIGPAGEVPQVPDKETKATMGTENTPGGKASPDPQDVRPSVFHNIKLFVLCHSLLQLAQLMISGYLKSSISTVEKRFGLSSQTSGLLASFNEVGNTALIVFVSYFGSRVHRPRMIGYGAILVALAGLLMTLPHFISEPYRYDNTSPEDMPQDFKASLCLPTTSAPASAPSNGNCSSYTETQHLSVVGIMFVAQTLLGVGGVPIQPFGISYIDDFAHNSNSPLYLGILFAVTMMGPGLAFGLGSLMLRLYVDINQMPEGGISLTIKDPRWVGAWWLGFLIAAGAVALAAIPYFFFPKEMPKEKRELQFRRKVLAVTDSPARKGKDSPSKQSPGESTKKQDGLVQIAPNLTVIQFIKVFPRVLLQTLRHPIFLLVVLSQVCLSSMAAGMATFLPKFLERQFSITASYANLLIGCLSFPSVIVGIVVGGVLVKRLHLGPVGCGALCLLGMLLCLFFSLPLFFIGCSSHQIAGITHQTSAHPGLELSPSCMEACSCPLDGFNPVCDPSTRVEYITPCHAGCSSWVVQDALDNSQVFYTNCSCVVEGNPVLAGSCDSTCSHLVVPFLLLVSLGSALACLTHTPSFMLILRGVKKEDKTLAVGIQFMFLRILAWMPSPVIHGSAIDTTCVHWALSCGRRAVCRYYNNDLLRNRFIGLQFFFKTGSVICFALVLAVLRQQDKEARTKESRSSPAVEQQLLVSGPGKKPEDSRV
notes: host or cells: HEK293
Km [5]: 119 µM | Vmax [5]: 6.69e-05 µmol/min/mg | Vmax/Km [5]: 0.56 µL/min/mg
